These compounds were tested against ROCK2 (Homo sapiens, UniProt O75116) (assay: ROCK2 kinase inhibition assay (Caliper LABCHIP, FITC peptide substrate)). Details: 5 μM ATP, 1.5 μM peptide substrate; value ranges.
Format: biochemical
Method in brief: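 Dose-response curves gave IC50 from inhibition of peptide phosphorylation, measured by LabChip separation after EDTA stop. Reactions used 1.5 μM FITC-labelled peptide, 5 μM ATP, 20 mM HEPES pH 7.5 with MgCl2, Brij-35, DTT, and under 2% DMSO.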

ROCK2, sequence (O75116 whole entry, species assumed): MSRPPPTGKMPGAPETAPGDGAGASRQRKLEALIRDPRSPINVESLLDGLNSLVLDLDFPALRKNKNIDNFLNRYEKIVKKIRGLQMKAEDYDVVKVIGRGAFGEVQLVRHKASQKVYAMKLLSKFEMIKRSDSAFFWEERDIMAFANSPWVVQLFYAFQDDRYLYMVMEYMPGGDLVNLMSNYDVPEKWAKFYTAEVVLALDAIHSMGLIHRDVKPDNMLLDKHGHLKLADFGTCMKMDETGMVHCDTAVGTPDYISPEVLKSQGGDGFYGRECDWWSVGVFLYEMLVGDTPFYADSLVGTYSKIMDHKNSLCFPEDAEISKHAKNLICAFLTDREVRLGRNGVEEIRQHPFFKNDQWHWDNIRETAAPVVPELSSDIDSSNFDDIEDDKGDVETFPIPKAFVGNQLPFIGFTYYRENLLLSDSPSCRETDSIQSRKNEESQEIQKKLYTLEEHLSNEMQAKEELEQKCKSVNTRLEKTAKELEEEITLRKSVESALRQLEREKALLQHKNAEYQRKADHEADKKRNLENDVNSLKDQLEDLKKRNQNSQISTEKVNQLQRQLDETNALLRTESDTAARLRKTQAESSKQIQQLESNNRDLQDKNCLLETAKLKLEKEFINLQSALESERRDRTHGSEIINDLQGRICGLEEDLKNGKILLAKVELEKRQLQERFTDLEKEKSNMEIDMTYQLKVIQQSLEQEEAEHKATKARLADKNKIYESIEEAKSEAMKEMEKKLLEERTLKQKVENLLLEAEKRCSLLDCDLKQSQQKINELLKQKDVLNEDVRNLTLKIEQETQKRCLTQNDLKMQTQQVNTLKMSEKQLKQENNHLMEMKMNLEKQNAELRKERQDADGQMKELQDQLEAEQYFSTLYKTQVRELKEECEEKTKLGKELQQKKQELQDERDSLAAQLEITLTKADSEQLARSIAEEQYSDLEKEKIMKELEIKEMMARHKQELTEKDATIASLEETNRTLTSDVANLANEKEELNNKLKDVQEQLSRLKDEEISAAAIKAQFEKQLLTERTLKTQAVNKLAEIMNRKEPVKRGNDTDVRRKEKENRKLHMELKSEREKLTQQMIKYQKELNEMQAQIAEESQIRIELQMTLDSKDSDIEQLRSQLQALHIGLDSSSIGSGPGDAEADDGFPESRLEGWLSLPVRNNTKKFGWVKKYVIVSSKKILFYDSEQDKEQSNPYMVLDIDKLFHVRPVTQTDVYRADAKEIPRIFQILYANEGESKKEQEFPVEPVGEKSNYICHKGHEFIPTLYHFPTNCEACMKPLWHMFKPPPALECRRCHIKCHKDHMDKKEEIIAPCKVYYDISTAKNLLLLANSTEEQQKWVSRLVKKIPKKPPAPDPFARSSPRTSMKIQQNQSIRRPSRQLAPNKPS

| IC50 | SMILES |
| --- | --- |
| 2.1 to 20 nM | COc1cc(CN2CCN(c3ccc(-c4cn[nH]c4)c(C)c3)C2=O)ccc1F [Example 282, 1-(4-fluoro-3-methoxybenzyl)-3-(3-methyl-4-(1H-pyrazol-4-yl)-phenyl)imidazolidin-2-one] |
| < 2 nM | COc1cccc(Cn2ccn(-c3ccc(-c4cn[nH]c4)cc3)c2=O)c1 [Example 334, l-(4-(1H-pyrazol-4-yl)phenyl)-3-(3-methoxybenzyl)-1H-imidazol-2(3H)-one] |
| 2.1 to 20 nM | COc1cc(F)cc(Cn2ccn(-c3ccc(-c4cn[nH]c4)cc3)c2=O)c1 [Example 336, 1-(4-(1H-pyrazol-4-yl)phenyl)-3-(3-fluoro-5-methoxybenzyl)-1H-imidazol-2(3H)-one] |
| 20.1 to 200 nM | COc1cccc(Cn2ccn(-c3ccc(-c4cn[nH]c4)cc3)c2=O)c1F [Example 337, 1-(4-(1H-pyrazol-4-yl)phenyl)-3-(2-fluoro-3-methoxybenzyl)-1H-imidazol-2(3H)-one] |
| 20.1 to 200 nM | COc1ccc(F)c(Cn2ccn(-c3ccc(-c4cn[nH]c4)cc3)c2=O)c1 [Example 338, 1-(4-(1H-pyrazol-4-yl)phenyl)-3-(2-fluoro-5-methoxybenzyl)-1H-imidazol-2(3H)-one] |
| < 2 nM | COc1cccc(Cn2ccn(-c3ccc(-c4cn[nH]c4)c(OC)c3)c2=O)c1 [Example 342, 1-(3-methoxy-4-(1H-pyrazol-4-yl)phenyl)-3-(3-methoxybenzyl)-1H-imidazol-2(3H)-one] |
| 2.1 to 20 nM | COc1cc(F)cc(Cn2ccn(-c3ccc(-c4cn[nH]c4)c(OC)c3)c2=O)c1 [Example 343, 1-(3-fluoro-5-methoxybenzyl)-3-(3-methoxy-4-(1H-pyrazol-4-yl)phenyl)-1H-imidazol-2(3H)-one] |
| 20.1 to 200 nM | COc1cc(Cn2ccn(-c3ccc(-c4cn[nH]c4)cn3)c2=O)ccc1F [Example 346, 1-(5-(1H-pyrazol-4-yl)pyridin-2-yl)-3-(4-fluoro-3-methoxybenzyl)-1H-imidazol-2(3H)-one] |
| 20.1 to 200 nM | CCc1cc(-n2ccn(Cc3ccc(F)c(OC)c3)c2=O)ccc1-c1cn[nH]c1 [Example 348, 1-(3-ethyl-4-(1H-pyrazol-4-yl)phenyl)-3-(4-fluoro-3-methoxybenzyl)-1H-imidazol-2(3H)-one] |
| < 2 nM | COc1ccc(F)c(Cn2ccn(-c3ccc(-c4cn[nH]c4)c(OC)n3)c2=O)c1 [Example 373, 1-(2-fluoro-5-methoxybenzyl)-3-(6-methoxy-5-(1H-pyrazol-4-yl)pyridin-2-yl)-1H-imidazol-2(3H)-one] |
| 2.1 to 20 nM | COc1ccc(F)cc1Cn1ccn(-c2ccc(-c3cn[nH]c3)c(OC)n2)c1=O [Example 374, 1-(5-fluoro-2-methoxybenzyl)-3-(6-methoxy-5-(1H-pyrazol-4-yl)pyridin-2-yl)-1H-imidazol-2(3H)-one] |
| < 2 nM | COc1cccc(Cn2ccn(-c3ccc(-c4cn[nH]c4)c(OC)n3)c2=O)c1 [Example 376, 1-(6-methoxy-5-(1H-pyrazol-4-yl)pyridin-2-yl)-3-(3-methoxybenzyl)-1H-imidazol-2(3H)-one] |
| 2.1 to 20 nM | COc1nc(-n2ccn(Cc3ccc(F)c(OCC4CC4)c3)c2=O)ccc1-c1cn[nH]c1 [Example 377, 1-(3-(cyclopropylmethoxy)-4-fluorobenzyl)-3-(6-methoxy-5-(1H-pyrazol-4-yl)pyridin-2-yl)-1H-imidazol-2(3H)-one] |
| < 2 nM | COc1nc(-n2ccn(Cc3cccc(F)c3C)c2=O)ccc1-c1cn[nH]c1 [Example 380, 1-(3-fluoro-2-methylbenzyl)-3-(6-methoxy-5-(1H-pyrazol-4-yl)pyridin-2-yl)-1H-imidazol-2(3H)-one] |
| 2.1 to 20 nM | COc1nc(-n2ccn(Cc3ccc(F)cc3C)c2=O)ccc1-c1cn[nH]c1 [Example 381, 1-(4-fluoro-2-methylbenzyl)-3-(6-methoxy-5-(1H-pyrazol-4-yl)pyridin-2-yl)-1H-imidazol-2(3H)-one] |

The remaining lines, values behind:

| SMILES | IC50 |
| --- | --- |
| COc1cc(CN2CCN(c3ccc(-c4cn[nH]c4)c(C(F)(F)F)c3)C2=O)ccc1F [Example 283, 1-(4-(1H-pyrazol-4-yl)-3-(trifluoromethyl)phenyl)-3-(4-fluoro-3-methoxybenzyl)imidazolidin-2-one] | 200 to 2000 nM |
| Cc1cc(N2CCN(Cc3cccc(OCC4CC4)c3)C2=O)ccc1-c1cn[nH]c1 [Example 284, 1-(3-(cyclopropylmethoxy)benzyl)-3-(3-methyl-4-(1H-pyrazol-4-yl)phenyl)imidazolidin-2-one] | 20.1 to 200 nM |
| CCc1cc(N2CCN(Cc3cccc(OCC4CC4)c3)C2=O)ccc1-c1cn[nH]c1 [Example 285, 1-(3-(cyclopropylmethoxy)benzyl)-3-(3-ethyl-4-(1H-pyrazol-4-yl)phenyl)imidazolidin-2-one] | 200 to 2000 nM |
| COc1cc(CN2C(=O)N(c3ccc(-c4cn[nH]c4)cn3)C[C@H]2CO)ccc1F [Example 311, (S)-1-(5-(1H-Pyrazol-4-yl)pyridin-2-yl)-3-(4-fluoro-3-methoxybenzyl)-4-(hydroxymethyl)imidazolidin-2-one] | 20.1 to 200 nM |
| COc1cc(F)cc(CN2C(=O)N(c3ccc(-c4cn[nH]c4)cn3)C[C@H]2CO)c1 [Example 312, (S)-1-(5-(1H-pyrazol-4-yl)pyridin-2-yl)-3-(3-fluoro-5-methoxybenzyl)-4-(hydroxymethyl)imidazolidin-2-one] | 2.1 to 20 nM |
| COc1cc(F)cc(CN2C(=O)N(c3ccc(-c4cn[nH]c4)cn3)C[C@@H]2CO)c1 [Example 313, (R)-1-(5-(1H-pyrazol-4-yl)pyridin-2-yl)-3-(3-fluoro-5-methoxybenzyl)-4-(hydroxymethyl)imidazolidin-2-one] | 20.1 to 200 nM |
| COc1cccc(CN2C(=O)N(c3ccc(-c4cn[nH]c4)cn3)C[C@H]2CO)c1 [Example 314, (S)-1-(5-(1H-pyrazol-4-yl)pyridin-2-yl)-4-(hydroxymethyl)-3-(3-methoxybenzyl)imidazolidin-2-one] | 2.1 to 20 nM |
| COc1cccc(CN2CCN(c3ccc(-c4ccncc4F)c(OC)n3)C2=O)c1 [Example 316, 1-(3′-Fluoro-2-methoxy-[3,4′-bipyridin]-6-yl)-3-(3-methoxybenzyl)imidazolidin-2-one] | 2.1 to 20 nM |
| COc1cccc(CN2CCN(c3ccc(-c4ccnc(F)c4)c(OC)n3)C2=O)c1 [Example 319, 1-(2′-fluoro-2-methoxy-[3,4′-bipyridin]-6-yl)-3-(3-methoxybenzyl)imidazolidin-2-one] | 2.1 to 20 nM |
| COc1cccc(CN2CCN(c3ccc(-c4c[nH]nc4C)c(OC)n3)C2=O)c1 [Example 320, 1-(6-methoxy-5-(5-methyl-1H-pyrazol-4-yl)pyridin-2-yl)-3-(3-methoxybenzyl)imidazolidin-2-one] | 2.1 to 20 nM |
| O=c1n(Cc2cccc(F)c2)ccn1-c1ccc(-c2cn[nH]c2)cc1 [Example 321] | 2.1 to 20 nM |
| COc1cccc(Cn2ccn(-c3ccc(-c4ccnc5[nH]ccc45)cc3)c2=O)c1 [Example 322, 1-(4-(1H-pyrrolo[2,3-b]pyridin-4-yl)phenyl)-3-(3-methoxybenzyl)-1H-imidazol-2(3H)-one] | 2.1 to 20 nM |
| O=c1n(CCc2ccccc2F)ccn1-c1ccc(-c2cn[nH]c2)cc1 [Example 330, 1-(4-(1H-pyrazol-4-yl)phenyl)-3-(2-fluorophenethyl)-1H-imidazol-2(3H)-one] | 20.1 to 200 nM |
| CC(c1ccccc1)n1ccn(-c2ccc(-c3cn[nH]c3)cc2)c1=O (stereo not drawn) [Example 331, 1-(4-(1H-pyrazol-4-yl)phenyl)-3-(1-phenylethyl)-1H-imidazol-2(3H)-one] | 2.1 to 20 nM |
| CC(c1ccccc1)n1ccn(-c2ccc(-c3cn[nH]c3)cc2)c1=O (stereo not drawn) [Example 332, 1-(4-(1H-pyrazol-4-yl)phenyl)-3-(1-phenylethyl)-1H-imidazol-2(3H)-one] | 20.1 to 200 nM |
| O=c1n(Cc2cccc(OC(F)F)c2)ccn1-c1ccc(-c2cn[nH]c2)cc1 [Example 333, 1-(4-(1H-pyrazol-4-yl)phenyl)-3-(3-(difluoromethoxy)benzyl)-1H-imidazol-2(3H)-one] | 2.1 to 20 nM |
| O=c1n(CCc2ccccc2)ccn1-c1ccc(-c2cn[nH]c2)cc1 [Example 335, 1-(4-(1H-pyrazol-4-yl)phenyl)-3-phenethyl-1H-imidazol-2(3H)-one] | 20.1 to 200 nM |
| COc1cccc(Cn2ccn(-c3ccc(-c4cn[nH]c4)cn3)c2=O)c1 [Example 344, 1-(5-(1H-pyrazol-4-yl)pyridin-2-yl)-3-(3-methoxybenzyl)-1H-imidazol-2(3H)-one] | 2.1 to 20 nM |
| COc1cc(F)cc(Cn2ccn(-c3ccc(-c4cn[nH]c4)cn3)c2=O)c1 [Example 345, 1-(5-(1H-pyrazol-4-yl)pyridin-2-yl)-3-(3-fluoro-5-methoxybenzyl)-1H-imidazol-2(3H)-one] | 2.1 to 20 nM |
| O=c1n(Cc2cccc(OCC3CC3)c2)ccn1-c1ccc(-c2cn[nH]c2)cn1 [Example 347, 1-(5-(1H-pyrazol-4-yl)pyridin-2-yl)-3-(3-(cyclopropylmethoxy)benzyl)-1H-imidazol-2(3H)-one] | 20.1 to 200 nM |
| COc1cccc(C(C(=O)O)n2ccn(-c3ccc(-c4cn[nH]c4)cn3)c2=O)c1 (stereo not drawn) [Example 351, 2-(3-(5-(1H-pyrazol-4-yl)pyridin-2-yl)-2-oxo-2,3-dihydro-1H-imidazol-1-yl)-2-(3-methoxyphenyl)acetic acid] | 200 to 2000 nM |
| COc1cccc(C(C(=O)O)n2ccn(-c3ccc(-c4cn[nH]c4)c(OC)c3)c2=O)c1 (stereo not drawn) [Example 352, 2-(3-(3-methoxy-4-(1H-pyrazol-4-yl)phenyl)-2-oxo-2,3-dihydro-1H-imidazol-1-yl)-2-(3-methoxyphenyl)acetic acid] | 200 to 2000 nM |
| COc1nc(-n2ccn(Cc3cccc(F)c3F)c2=O)ccc1-c1cn[nH]c1 [Example 375, 1-(2,3-difluorobenzyl)-3-(6-methoxy-5-(1H-pyrazol-4-yl)pyridin-2-yl)-1H-imidazol-2(3H)-one] | 2.1 to 20 nM |
| COc1nc(-n2ccn(Cc3cccc(OCC4CC4)c3)c2=O)ccc1-c1cn[nH]c1 [Example 378, 1-(3-(cyclopropylmethoxy)benzyl)-3-(6-methoxy-5-(1H-pyrazol-4-yl)pyridin-2-yl)-1H-imidazol-2(3H)-one] | < 2 nM |

Source: US10123993B2, “Cyclic ureas as inhibitors of rock” (BRISTOL-MYERS SQUIBB COMPANY, priority 2015, dated 2018)
